In publication PMC8963254, “Effects of Lysine N-ζ-Methylation in Ultrashort Tetrabasic Lipopeptides (UTBLPs) on the Potentiation of Rifampicin, Novobiocin, and Niclosamide in Gram-Negative Bacteria” (Antibiotics, 2022):
Like-named read-outs stand apart in the source and are kept apart here.

Assays:
A. baumannii ATCC 17978 = assay type: cell-based, Acinetobacter baumannii; conditions: ATCC 17978, 18 h
Protocol: (§1) The in vitro antibacterial activity of the UTBLPs was assessed against wild-type and clinically isolated bacterial strains. To obtain the MIC of the compounds, the microbroth dilution susceptibility assay was performed according to the Clinical and Laboratory Standards Institute (CLSI, Wayne, PA, USA) guidelines and as previously described. Briefly, the compounds at varying concentrations were incubated with bacterial inoculum (5 × 10^5 CFU/mL final concentration) at 37 °C for 18 h. Growth in the form of turbidity was confirmed using an EMax Plus microplate reader (Molecular Devices, San Jose, CA, USA) at 590 nm.

E. coli ATCC 25922 [1] = assay type: cell-based, Escherichia coli; conditions: ATCC 25922, 18 h
Protocol: as §1

E. faecalis ATCC 29212 [2] = assay type: cell-based, Enterococcus faecalis; conditions: ATCC 29212, 18 h
Protocol: as §1

E. faecium ATCC 27270 [3] = assay type: cell-based, Enterococcus faecium; conditions: ATCC 27270, 18 h
Protocol: as §1

A. baumannii AB027 = experiment: microbe, parasite or virus in culture; assay type: cell-based, Acinetobacter baumannii; conditions: AB027, 18 h
Procedure, shortened: (§2)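 Turbidity at 590 nm defined growth, from which the MIC was taken. Cultures at a final density of 5 × 10^5 CFU/mL were exposed to a range of compound levels at 37 °C for 18 h in a CLSI-based microdilution format.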

A. baumannii AB92247 = experiment: microbe, parasite or virus in culture; assay type: cell-based, Acinetobacter baumannii; conditions: AB92247, 18 h
Procedure, shortened: as §2

E. coli 94393 [4] = experiment: microbe, parasite or virus in culture; assay type: cell-based, Escherichia coli; conditions: 94393, 18 h
Procedure, shortened: as §2

E. coli 94474 [5] = experiment: microbe, parasite or virus in culture; assay type: cell-based, Escherichia coli; conditions: 94474, 18 h
Procedure, shortened: as §2

K. pneumoniae 113250 [6] = experiment: microbe, parasite or virus in culture; assay type: cell-based, Klebsiella pneumoniae; conditions: 113250, 18 h
Procedure, shortened: as §2

MRSE 61589 [7] = assay type: cell-based, Staphylococcus epidermidis; conditions: 61589, 18 h
Protocol: as §1

MSSE 81388 [8] = assay type: cell-based, Staphylococcus epidermidis; conditions: 18 h
Protocol: as §1

E. coli 94393 [9] = assay type: cell-based, Escherichia coli; conditions: for MICUTBLP: UTBLP alone
Procedure, shortened: (§3)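 Values derive from a two-agent checkerboard with an 18 h, 37 °C incubation. FICI cut-offs: ≤0.5 synergy, 0.5–4 additive, >4 antagonism.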

E. coli 94474 [10] = assay type: cell-based, Escherichia coli; conditions: for MICUTBLP: UTBLP alone
Procedure, shortened: as §3

E. coli ATCC 25922 [11] = assay type: cell-based, Escherichia coli; conditions: for MICUTBLP: UTBLP alone
Procedure, shortened: as §3

K. pneumoniae 113250 [12] = assay type: cell-based, Klebsiella pneumoniae; conditions: for MICUTBLP: UTBLP alone
Procedure, shortened: as §3

MRSA ATCC 33592 = assay type: cell-based, Staphylococcus aureus
Procedure, shortened: as §3

S. aureus ATCC 29213 = assay type: cell-based, Staphylococcus aureus
Procedure, shortened: as §3

MRSE 61589 [13] = assay type: cell-based, Staphylococcus epidermidis
Procedure, shortened: as §3

MSSE 81388 [14] = assay type: cell-based, Staphylococcus epidermidis
Procedure, shortened: as §3

E. faecalis ATCC 29212 [15] = assay type: cell-based, Enterococcus faecalis
Procedure, shortened: as §3

E. faecium ATCC 27270 [16] = assay type: cell-based, Enterococcus faecium
Procedure, shortened: as §3

[17] = UTBLP in combination with novobiocin
[18] = UTBLP in combination with rifampicin
[19] = novobiocin in combination with the UTBLP
[20] = rifampicin in combination with the UTBLP
[21] = UTBLP in combination with chloramphenicol
[22] = chloramphenicol in combination with the UTBLP
[23] = UTBLP alone, plate with chloramphenicol

Compound: CCCCCCCC(=O)N[C@@H](CCCCN(C)C)C(=O)NCCCN(CCCNC(=O)[C@H](CCCCN(C)C)NC(=O)CCCCCCC)CC(=O)N[C@@H](CCCCN(C)C)C(N)=O [UTBLP 3]
- MIC (A. baumannii ATCC 17978): >128 µg/mL
- MIC (E. coli ATCC 25922 [1]): >128 µg/mL
- MIC (E. faecalis ATCC 29212 [2]): >128 µg/mL
- MIC (E. faecium ATCC 27270 [3]): >128 µg/mL
- MIC (A. baumannii AB027): > 128 µg/mL
- MIC (A. baumannii AB92247): > 128 µg/mL
- MIC (E. coli 94393 [4]): > 128 µg/mL
- MIC (E. coli 94474 [5]): > 128 µg/mL
- MIC (K. pneumoniae 113250 [6]): > 128 µg/mL
- MIC (MRSE 61589 [7]): > 128 µg/mL
- MIC (MSSE 81388 [8]): > 128 µg/mL
- Interpretation (E. coli 94393 [9]; UTBLP + novobiocin): Synergy (FICI ≤ 0.5 is synergistic)
- Interpretation (E. coli 94393 [9]; UTBLP + rifampicin): Synergy (FICI ≤ 0.5 is synergistic)
- MICUTBLP (E. coli 94393 [9]; plate with novobiocin): > 128 µg/mL
- MICUTBLP (E. coli 94393 [9]; plate with rifampicin): > 128 µg/mL
- MICUTBLP [MICcombo] (E. coli 94393 [9]; [17]): 16 µg/mL
- MICUTBLP [MICcombo] (E. coli 94393 [9]; [18]): 16 µg/mL
- MICantibiotic [MICcombo] (E. coli 94393 [9]; [19]): 8 µg/mL
- MICantibiotic [MICcombo] (E. coli 94393 [9]; [20]): 1 µg/mL
- Interpretation (E. coli 94474 [10]; UTBLP + novobiocin): Synergy (FICI ≤ 0.5 is synergistic)
- Interpretation (E. coli 94474 [10]; UTBLP + rifampicin): Additive (0.5 < x ≤ 4 is additive)
- MICUTBLP (E. coli 94474 [10]; plate with novobiocin): > 128 µg/mL
- MICUTBLP (E. coli 94474 [10]; plate with rifampicin): > 128 µg/mL
- MICUTBLP [MICcombo] (E. coli 94474 [10]; [17]): 16 µg/mL
- MICUTBLP [MICcombo] (E. coli 94474 [10]; [18]): 16 µg/mL
- MICantibiotic [MICcombo] (E. coli 94474 [10]; [19]): 32 µg/mL
- MICantibiotic [MICcombo] (E. coli 94474 [10]; [20]): 2 µg/mL
- Interpretation (E. coli ATCC 25922 [11]; UTBLP + chloramphenicol): Additive (0.5 < x ≤ 4 is additive)
- Interpretation (E. coli ATCC 25922 [11]; UTBLP + niclosamide): Synergy (FICI ≤ 0.5 is synergistic)
- Interpretation (E. coli ATCC 25922 [11]; UTBLP + novobiocin): Synergy (FICI ≤ 0.5 is synergistic)
- Interpretation (E. coli ATCC 25922 [11]; UTBLP + rifampicin): Synergy (FICI ≤ 0.5 is synergistic)
- MICUTBLP (E. coli ATCC 25922 [11]; plate with chloramphenicol): > 128 µg/mL
- MICUTBLP (E. coli ATCC 25922 [11]; plate with niclosamide): > 128 µg/mL
- MICUTBLP (E. coli ATCC 25922 [11]; plate with novobiocin): > 128 µg/mL
- MICUTBLP (E. coli ATCC 25922 [11]; plate with rifampicin): > 128 µg/mL
- MICUTBLP [MICcombo] (E. coli ATCC 25922 [11]; [21]): 0.5 µg/mL
- MICUTBLP [MICcombo] (E. coli ATCC 25922 [11]; UTBLP in combination with niclosamide): 16 µg/mL
- MICUTBLP [MICcombo] (E. coli ATCC 25922 [11]; [17]): 16 µg/mL
- MICUTBLP [MICcombo] (E. coli ATCC 25922 [11]; [18]): 16 µg/mL
- MICantibiotic [MICcombo] (E. coli ATCC 25922 [11]; [22]): 2 µg/mL
- MICantibiotic [MICcombo] (E. coli ATCC 25922 [11]; niclosamide in combination with the UTBLP): 8 µg/mL
- MICantibiotic [MICcombo] (E. coli ATCC 25922 [11]; [19]): 4 µg/mL
- MICantibiotic [MICcombo] (E. coli ATCC 25922 [11]; [20]): 1 µg/mL
- Interpretation (K. pneumoniae 113250 [12]; UTBLP + novobiocin): Synergy (FICI ≤ 0.5 is synergistic)
- Interpretation (K. pneumoniae 113250 [12]; UTBLP + rifampicin): Synergy (FICI ≤ 0.5 is synergistic)
- MICUTBLP (K. pneumoniae 113250 [12]; plate with novobiocin): > 128 µg/mL
- MICUTBLP (K. pneumoniae 113250 [12]; plate with rifampicin): > 128 µg/mL
- MICUTBLP [MICcombo] (K. pneumoniae 113250 [12]; [17]): 16 µg/mL
- MICUTBLP [MICcombo] (K. pneumoniae 113250 [12]; [18]): 16 µg/mL
- MICantibiotic [MICcombo] (K. pneumoniae 113250 [12]; [19]): 32 µg/mL
- MICantibiotic [MICcombo] (K. pneumoniae 113250 [12]; [20]): 4 µg/mL
- Interpretation (MRSA ATCC 33592; UTBLP + chloramphenicol): Additive (0.5 < x ≤ 4 is additive)
- MICUTBLP (MRSA ATCC 33592; [23]): > 128 µg/mL
- MICUTBLP [MICcombo] (MRSA ATCC 33592; [21]): 0.25 µg/mL
- MICchloramphenicol [MICcombo] (MRSA ATCC 33592; [22]): 64 µg/mL
- MICUTBLP (S. aureus ATCC 29213; [23]): > 128 µg/mL
- MICUTBLP [MICcombo] (S. aureus ATCC 29213; [21]): 0.25 µg/mL
- MICchloramphenicol [MICcombo] (S. aureus ATCC 29213; [22]): 16 µg/mL
- Interpretation (MRSE 61589 [13]; UTBLP + chloramphenicol): Additive (0.5 < x ≤ 4 is additive)
- MICUTBLP (MRSE 61589 [13]; [23]): > 128 µg/mL
- MICUTBLP [MICcombo] (MRSE 61589 [13]; [21]): 0.25 µg/mL
- MICchloramphenicol [MICcombo] (MRSE 61589 [13]; [22]): 16 µg/mL
- Interpretation (MSSE 81388 [14]; UTBLP + chloramphenicol): Additive (0.5 < x ≤ 4 is additive)
- MICUTBLP (MSSE 81388 [14]; [23]): > 128 µg/mL
- MICUTBLP [MICcombo] (MSSE 81388 [14]; [21]): 0.25 µg/mL
- MICchloramphenicol [MICcombo] (MSSE 81388 [14]; [22]): 8 µg/mL
- Interpretation (E. faecalis ATCC 29212 [15]; UTBLP + chloramphenicol): Additive (0.5 < x ≤ 4 is additive)
- MICUTBLP (E. faecalis ATCC 29212 [15]; [23]): > 128 µg/mL
- MICUTBLP [MICcombo] (E. faecalis ATCC 29212 [15]; [21]): 0.25 µg/mL
- MICchloramphenicol [MICcombo] (E. faecalis ATCC 29212 [15]; [22]): 8 µg/mL
- Interpretation (E. faecium ATCC 27270 [16]; UTBLP + chloramphenicol): Additive (0.5 < x ≤ 4 is additive)
- MICUTBLP (E. faecium ATCC 27270 [16]; [23]): > 128 µg/mL
- MICUTBLP [MICcombo] (E. faecium ATCC 27270 [16]; [21]): 0.25 µg/mL
- MICchloramphenicol [MICcombo] (E. faecium ATCC 27270 [16]; [22]): 8 µg/mL
